Results on 1 substance are retold here after patent publication US20200390902A1, “Antibody-Drug Conjugates Targeted at Human Aspartyl-(Asparaginyl)-B-Hydroxylase (HAAH)” (Panacea Pharmaceuticals, Inc., priority 2017, published 2020).

In assay [1] the test system is H460 cells. Put plainly: MTS cell viability assay, H460. It counts as cell-based, human. On the procedure: Human H460 cells were obtained from the American Type Culture Collection (ATCC; Manassas, Va., U.S.A.). The H460 cells were seeded at a density of 5,000 cells/well in 96-well plates and cultured in HG-DMEM (ThermoFisher Scientific, Waltham. Mass., U.S.A.; Catalog No. 11965-092) supplemented with 20 mM HEPES, 4 mM L-glutamine, 1 mM sodium pyruvate, 1× non-essential amino acids, 50 μg/ml gentamicin, and 10% fetal bovine serum (FBS)). Human MOLM-14 cells were obtained from Dr. Ashkan Emadi at University of Maryland (Baltimore. Md., U.S.A.). The MOLM-14 cells were seeded at a density of 5000 cells/well in 96-well plates and cultured in RPMI 1640 with 20% heat-inactivated FBS. The H460 and MOLM-14 cells were treated with naked antibodies or ADCs for 24 hours, starting at the time of cell seeding. By the end of experiment, the cell viability for both cell lines was determined quantitatively using CELL TITER 96 AQUOUS ONE SOLUTION cell proliferation assay, a colorimetric method for determining the number of viable cells (MTS; Promega, Madison. Wis., U.S.A.; Catalog No. G3582).
FIG. 6 depicts the effects of linker and payload on cytotoxicity to cancer cell H460. […] The Log of the antibody concentration in nM is shown on the X axis.
The bioactivities of these SNS622 ADCs were examined using H460 cells. The cells were treated for 48 hours with these SNS622-MC-DM1s, or with SNS622 as control. Cell viability was evaluated at the end of the experiment using an MTS assay.
SNS622-MC-vc-PAB-DM1 and SNS622-MC-MMAE were also synthesized under different initial DAR ratios of 2.5:1, 5:1 and 10:1 at fixed pH8. The 460 cells were treated for 72 hours with ADCs SNS622-MC-vc-PAB-DM1 at with OAR 2.5:1; 5:1; and 10:1, or SNS622-MC-MMAE at with DAR 2.5:1; 5:1; and 10:1. The cell viability and cell death were separately quantified with […] and lactate dehydrogenase (LDH) release assays. FIG. 8A depicts a graph of the MTA quantification results expressed as percentage of untreated control. FIG. 8B depicts a graph of the LDH assay results expressed as percentage of 512 nM DM1-elicited maximal LDH release. The Log of the antibody concentration in nM is shown on the X axis.

Assay [2] deals with H460 cells. Put plainly: Cell morphology by phase contrast microscope, H460. The assay is classed as cell-based, human. The conditions noted are these: H460, 32 nM, 72 hours.
Procedure: Both cell lines were cultured in HG-DMEM (ThermoFisher Scientific Catalog No. 11965-092) supplemented with 20 mM HEPES (4-(2-hydroxyethyl)-1-piperazineethanesulfonic acid), 4 mM L-glutamine, 1 mM sodium pyruvate, 1× non-essential amino acids, 50 μg/ml gentamicin and 10% fetal bovine serum (FBS). H460 and NHLF cells were seeded into 96-well plates at 5,000 cells per well, following a 2-day FBS deprivation, and released by culture in complete culture medium containing 10% FBS. […] By 72 hours post treatment, cell death was determined by observing cell morphology using a phase contrast microscope at 150×.

Entries after “also recorded” stand apart in the source; their conditions may differ. Where two headings read alike, the source gives them in different places.

Turning to “SNS622-MC-DM1: SNS622 anti-HAAH monoclonal antibody conjugated to mertansine (DM1) by the non-cleavable linker maleimidocaproyl (MC)”, the “Effect on H460 cell viability / growth (MTS)” value with H460 cells [1] (H460, 24 hours) was “decreased the H460 cell viability; also recorded: inhibit in vitro cell growth of both H460 and MOLM-14”. Besides, the EC50 (as a rule, the concentration that produces a half-maximal response) in the assay with H460 cells [1] (H460, 24 hours, read-out: EC50, killing of H460 cells (MTS)) is around 15 nM. Moreover, the IC50 – broadly, the midpoint of a concentration-inhibition curve – in the assay with H460 cells [1] (H460, 72 hours, reaction DAR 10:1, read-out: IC50 of MTS) is 64 nM; with H460 cells [1] (stated for both cancer cell lines (H460 and MOLM-14), read-out: IC50, suppressing cell growth), 15 nM. Moreover, in the assay with H460 cells [2], the “Cell density (morphology)” value is given as “reduction of cell density”.
